Reference: PMC12596500, “Affinity-selected peptide ligands specifically bind i-motif DNA and modulate c-Myc gene expression” (Nucleic Acids Research, 2025)
Peptide text beside a SMILES is read from it.

Assays:
[1] = test system: c-MycC52 iM; test: Fluorescent indicator displacement (FID) assay with Thiazole Orange; type: binding; conditions: 1 µM c-MycC52, 2 µM TO, 10 mM sodium cacodylate pH 6.6, peptides 25-200 µM, n = 3
Description: Fluorescent indicator displacement (FID) experiments used in this publication are based on the first FID assay developed for iM DNA [35]. The FID experiments were performed on a BMG CLARIOstar plate reader using 96-well, solid black flat-bottom plates. Thiazole Orange (TO) was the indicator, and the stock solution was prepared at 10 mM in DMSO. The TO stock was diluted into the appropriate buffer to 2 µM. Each well received 9 µl of the 2 µM TO solution, was excited at 430 nm, and fluorescence emission at 450 nm was measured; this was normalized to 0% to account for background fluorescence. One microlitre of […] DNA was added to each well and shaken in the plate reader for 30 s using double orbital shaking at 700 rpm and left for 10 min to equilibrate. Following equilibration, fluorescence emission was measured and normalized to 100% representing maximum fluorescence. Peptides were titrated starting at 25 µM, with 0.9 µl additions into each well in triplicate, until a final concentration of 200 µM was reached, and fluorescence emission was measured after each addition. Fluorescence emission for each well was normalized between 0% and 100%, which was taken away from 100 to give the percentage of displacement. The data were analyzed in Origin data analysis software and fitted with a hyperbolic dose–response curve from which the DC50 value was interpolated.
The relative binding of the five peptide ligands to the folded c-MycC52 iM was assessed via a FID assay using TO (Fig. 1). These experiments were performed in 10 mM sodium cacodylate at pH 6.6, the transitional pH of the c-Myc iM-forming sequence. As iM-formation is reduced at higher pH and higher ionic strength, additional stabilizing cations were avoided to allow the highest proportion of iM formation at the highest pH, to represent as close to physiological pH conditions as possible.
Figure 1. Concentration-dependent interaction of peptides with c-MycC52 iM determined via FID assay. The assay was performed with 1 µM c-MycC52 in 10 mM sodium cacodylate, pH 6.6, in the presence of 2 µM TO. Peptide ligands were added in increments of 25 µM up to a final concentration of 200 µM. Data are presented as mean ± SD (n = 3) and fitted using a Hill-Slope dose–response curve.

[2] = test system: c-Myc promoter (Del-4) Firefly luciferase reporter in HEK293 cells; test: Dual-luciferase reporter assay, c-Myc promoter; type: cell-based, human; conditions: HEK293, 4 h, 1, 5 or 10 µM peptide with Nanocin Pro; Firefly/Renilla normalised to 0.2% DMSO; P < 0.001
Description: Cell studies: HEK293 cells (ATCC CRL-1573™, passages 20–28), MCF-7 cells (ATCC HTB-22™, passages 21–28), and Panc-1 cells (ATCC CRL-1469™, passages 15–22) were cultured in Dulbecco's Modified Eagle's Medium (DMEM) medium supplemented with 10% fetal bovine serum (FBS; Gibco, UK) and maintained under standard cell culture conditions (37°C, 5% CO2). Cells were passaged every 3–4 days at ∼80% confluency. For experiments, the cells were seeded into six-well plates at a density of 1 × 10⁵ cells/well in DMEM containing 10% FBS. […] Cell proliferation was assessed at 4 and 24 h post-treatment using the CellTiter 96® Aqueous One Solution Cell Proliferation Assay (Promega, USA). For this, 20 µl of reagent was added per well, and absorbance at 490 nm was measured after 4 and 24 h using a SpectraMax iD3 plate reader (Molecular Devices, UK). Blank values (media without cells) were subtracted, and readings were normalized to DMSO-treated controls. […] Statistical significance was determined using one-way ANOVA followed by Holm–Šídák post-hoc analysis performed in GraphPad Prism version 10.1.2. […]

[3] = test system: human insulin promoter (ILPR) firefly luciferase reporter in HEK293 cells; test: Dual-luciferase reporter assay, insulin promoter (ILPR); type: cell-based; conditions: HEK293, 4 h, 10 µM peptide with Nanocin Pro

| Compound | relative binding affinity ranking (TO displacement) [1] | luciferase activity (c-Myc promoter activity) vs vehicle-only control [2] | insulin promoter (ILPR) reporter response [3] |
| --- | --- | --- | --- |
| CC(=O)N1CCC[C@H]1C(=O)N[C@H](C(=O)N[C@@H](CC(N)=O)C(=O)N[C@H](C(=O)N[C@@H](CO)C(=O)NCC(=O)N[C@@H](CCCNC(=N)N)C(=O)N[C@@H](CC(N)=O)C(=O)N[C@@H](Cc1ccc(O)cc1)C(=O)N[C@@H](CC(C)C)C(=O)N[C@@H](Cc1ccccc1)C(=O)N[C@@H](CS)C(N)=O)C(C)C)[C@@H](C)O [Pep-PTN] (Ac-PTNVSGRNYLFC-NH2) | SLC > PTN > VSE > EIE > RVS | concentration-dependent decreases in luciferase activity | no significant change in response |
| CC(=O)N[C@H](C(=O)N[C@@H](CO)C(=O)N[C@@H](CCC(=O)O)C(=O)N[C@@H](C)C(=O)N[C@@H](Cc1c[nH]c2ccccc12)C(=O)N[C@@H](CCCCN)C(=O)N[C@@H](CCC(=O)O)C(=O)N[C@H](C(=O)N[C@@H](CCCCN)C(=O)NCC(=O)N[C@@H](Cc1ccccc1)C(=O)N[C@@H](Cc1ccccc1)C(N)=O)C(C)C)C(C)C [Pep-VSE] (Ac-VSEAWKEVKGFF-NH2) | SLC > PTN > VSE > EIE > RVS | concentration-dependent decreases in luciferase activity | no significant change in response |
